Peptide text beside a SMILES is read from it. * marks the point of attachment. Palmitoyl = CCCCCCCCCCCCCCCC(=O)*
How the values were obtained:
[1] = biological target: T1, human GIP receptor (Homo sapiens, UniProt P48546); experiment: cAMP accumulation assay, antagonism of a GIP-mediated cAMP response (50-80% of max); format: cell-based
T1 construct: host or cells: COS-7, transient transfection (calcium phosphate), cDNA in pCMV-Script
T1 sequence (P48546 22-466): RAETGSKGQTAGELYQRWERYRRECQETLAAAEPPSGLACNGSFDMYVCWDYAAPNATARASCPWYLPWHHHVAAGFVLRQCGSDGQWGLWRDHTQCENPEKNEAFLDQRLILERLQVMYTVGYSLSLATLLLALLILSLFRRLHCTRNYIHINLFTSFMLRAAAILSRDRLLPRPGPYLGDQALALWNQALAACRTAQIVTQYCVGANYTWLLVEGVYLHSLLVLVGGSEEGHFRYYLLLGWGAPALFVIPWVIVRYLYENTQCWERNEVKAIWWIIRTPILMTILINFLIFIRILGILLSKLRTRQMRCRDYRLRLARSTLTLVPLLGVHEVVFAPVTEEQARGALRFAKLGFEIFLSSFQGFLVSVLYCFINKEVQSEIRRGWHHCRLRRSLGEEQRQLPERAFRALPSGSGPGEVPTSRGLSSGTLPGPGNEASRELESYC
Procedure: The day after, the cells were washed twice with Hepes buffered saline (HBS) buffer and incubated with HBS and 1 mM 3-isobutyl-1-methylxanthine (IBMX) for 30 min at 37° C. […] The HitHunter™ cAMP XS assay (DiscoveRx) was carried out according to the manufacturer's instructions.

[2] = biological target: T1, human GIP receptor; experiment: cAMP accumulation assay, agonism (ligand alone); format: cell-based; conditions: COS-7 cells, Table 1; for Emax: COS-7, intrinsic cAMP activity
[3] = biological target: T1, human GIP receptor; experiment: 125I-human GIP competition binding assay, in the presence and absence of 2% HSA; conditions: for Fold change HSA (2%)/Casein (0.1%): IC50 (plus HSA)/IC50 (minus HSA);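 for all read-outs here: nonspecific binding taken as radioligand bound to untransfected cells, IC50 obtained from nonlinear regression fits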
[4] = transiently transfected COS-7 cells, Table 1 and text, read-out: cAMP antagonism nM (IC50, antagonistic potency)
[5] = binding in 0.1% casein (absence of HSA), log value, read-out: logIC50 0.1% casein (converted)
[6] = heterologous competition binding, transiently transfected COS-7 cells expressing the human GIP receptor, read-out: Binding

Q: Which IC50 [1, 4] does the source give for `CCCCCCCCCCCC(=O)NCCCC[C@H](NC(=O)[C@H](CC(=O)O)NC(=O)[C@H](CCSC)NC(=O)[C@H](C)NC(=O)[C@@H](NC(=O)[C@H](CO)NC(=O)[C@H](Cc1ccc(O)cc1)NC(=O)[C@H](CC(=O)O)NC(=O)[C@H](CO)NC(=O)[C@@H](NC(=O)[C@H](Cc1ccccc1)NC(=O)[C@@H](N)[C@@H](C)O)[C@@H](C)CC)[C@@H](C)CC)C(=O)N[C@H](C(=O)N[C@@H](Cc1c[nH]cn1)C(=O)N[C@@H](CCC(N)=O)C(=O)N[C@@H](CCC(N)=O)C(=O)N[C@@H](CC(=O)O)C(=O)N[C@@H](Cc1ccccc1)C(=O)N[C@H](C(=O)N[C@@H](CC(N)=O)C(=O)N[C@@H](Cc1c[nH]c2ccccc12)C(=O)N[C@@H](CC(C)C)C(=O)N[C@@H](CC(C)C)C(=O)N[C@@H](C)C(=O)N[C@@H](CCC(N)=O)C(=O)N[C@@H](CCCCN)C(N)=O)C(C)C)[C@@H](C)CC` [AT119, [hGIP(5-30)NH2—C12/16]] here?
A: The IC50 was 26 nM.

Q: And the Emax [2]?
A: Its Emax is 0%.

Q: What about the “Fold change HSA (2%)/Casein (0.1%)” value [3] of the same compound?
A: The value was 7.2.

Q: And the IC50 [3, 5]?
A: Its IC50 is 398 nM.

Q: `CCCCCCCCCCCCCC(=O)N[C@H](C(=O)N[C@@H](Cc1ccccc1)C(=O)N[C@H](C(=O)N[C@@H](CO)C(=O)N[C@@H](CC(=O)O)C(=O)N[C@@H](Cc1ccc(O)cc1)C(=O)N[C@@H](CO)C(=O)N[C@H](C(=O)N[C@@H](C)C(=O)N[C@@H](CCSC)C(=O)N[C@@H](CC(=O)O)C(=O)N[C@@H](CCCCN)C(=O)N[C@H](C(=O)N[C@@H](Cc1c[nH]cn1)C(=O)N[C@@H](CCC(N)=O)C(=O)N[C@@H](CCC(N)=O)C(=O)N[C@@H](CC(=O)O)C(=O)N[C@@H](Cc1ccccc1)C(=O)N[C@H](C(=O)N[C@@H](CC(N)=O)C(=O)N[C@@H](Cc1c[nH]c2ccccc12)C(=O)N[C@@H](CC(C)C)C(=O)N[C@@H](CC(C)C)C(=O)N[C@@H](C)C(=O)N[C@@H](CCC(N)=O)C(=O)N[C@@H](CCCCN)C(N)=O)C(C)C)[C@@H](C)CC)[C@@H](C)CC)[C@@H](C)CC)[C@@H](C)O` [AT121, [hGIP(5-30)NH2—C14/5]] was tested. Which “Ability to antagonize the GIP-mediated cAMP response (in words)” value (from here on “Ability”) [1] did it give?
A: Its value is “high potent antagonists”.

Q: What about the IC50 [1, 4] of the same compound?
A: The IC50 was 54 nM.

Q: And the Emax [2]?
A: The Emax was 0%.

Q: And the “Affinity compared to GIP(3-30)NH2 (in words)” value [3]?
A: The value was “affinities in the same range as GIP(3-30)NH2”.

Q: What about the “Fold change HSA (2%)/Casein (0.1%)” value [3] of the same compound?
A: Its value is 5.7.

Q: And the IC50 [3, 5]?
A: The IC50 was 158 nM.

Q: What does the source list for `CCCCCCCCCCCCCCCC(=O)NCCCC[C@H](NC(=O)[C@H](CCC(=O)O)NC(=O)[C@H](CCSC)NC(=O)[C@H](C)NC(=O)[C@@H](NC(=O)[C@H](CO)NC(=O)[C@H](Cc1ccc(O)cc1)NC(=O)[C@H](CC(=O)O)NC(=O)[C@H](CO)NC(=O)[C@@H](NC(=O)[C@H](Cc1ccccc1)NC(=O)[C@@H](NC(=O)CNC(=O)[C@@H](N)CCC(=O)O)[C@@H](C)O)[C@@H](C)CC)[C@@H](C)CC)C(=O)N[C@H](C(=O)N[C@@H](C)C(=O)N[C@@H](CCC(N)=O)C(=O)N[C@@H](CCC(N)=O)C(=O)N[C@@H](CC(=O)O)C(=O)N[C@@H](Cc1ccccc1)C(=O)N[C@H](C(=O)N[C@@H](CC(N)=O)C(=O)N[C@@H](Cc1c[nH]c2ccccc12)C(=O)N[C@@H](CC(C)C)C(=O)N[C@@H](CC(C)C)C(=O)N[C@@H](C)C(=O)N[C@@H](CCC(N)=O)C(=O)N[C@@H](CCCCN)C(N)=O)C(C)C)[C@@H](C)CC` [AT131, [hGIP(3-30)NH2[D15E; H18A]-C16/16]] (H-EGTFISDYSIAMEK(Palmitoyl)IAQQDFVNWLLAQK-NH2; N-terminus assumed)?
A: IC50 ([1]; Table 3b, initial data, read-out: cAMP - antagonisme IC50): 65 nM; cAMP - antagonisme fold (paired) ([1]; fold vs GIP(3-30)NH2, Table 3b): 1.1 fold; IC50 ([1]; given as log IC50 (negative sign), transiently transfected COS-7 cells, Table 1, read-out: cAMP antagonism log (converted)): 39.8 nM; Emax [2]: 35%; IC50 ([3]; Table 3b, initial data, read-out: Binding IC50): 6510 nM; Binding fold (paired) ([3]; fold decrease in affinity compared to GIP(3-30)NH2, Table 3b): 49 fold; IC50 [3, 6]: 6510 nM

Q: How did the “Ability” value [1] turn out when `CCCCCCCCCCCCCCCC(=O)N[C@H](C(=O)N[C@@H](Cc1ccccc1)C(=O)N[C@H](C(=O)N[C@@H](CO)C(=O)N[C@@H](CC(=O)O)C(=O)N[C@@H](Cc1ccc(O)cc1)C(=O)N[C@@H](CO)C(=O)N[C@H](C(=O)N[C@@H](C)C(=O)N[C@@H](CCSC)C(=O)N[C@@H](CC(=O)O)C(=O)N[C@@H](CCCNC(=N)N)C(=O)N[C@H](C(=O)N[C@@H](CCCCN)C(=O)N[C@@H](CCC(N)=O)C(=O)N[C@@H](CCC(N)=O)C(=O)N[C@@H](CC(=O)O)C(=O)N[C@@H](Cc1ccccc1)C(=O)N[C@H](C(=O)N[C@@H](CC(N)=O)C(=O)N[C@@H](Cc1c[nH]c2ccccc12)C(=O)N[C@@H](CC(C)C)C(=O)N[C@@H](CC(C)C)C(=O)N[C@@H](C)C(=O)N[C@@H](CCC(N)=O)C(=O)N[C@@H](CCCNC(=N)N)C(N)=O)C(C)C)[C@@H](C)CC)[C@@H](C)CC)[C@@H](C)CC)[C@@H](C)O` [AT133, [hGIP(5-30)NH2[K16R; H18K; K30R]-C16/5]] (Palmitoyl-TFISDYSIAMDRIKQQDFVNWLLAQR-NH2) was run?
A: The value was “failed to antagonize”.

Q: And the Emax [2]?
A: Its Emax is 0%.

Q: And the “Fold change HSA (2%)/Casein (0.1%)” value [3]?
A: Its value is 1.3.

Q: And the IC50 [3, 5]?
A: Its IC50 is 1580 nM.

Q: And the IC50 [3, 6]?
A: Its IC50 is 1720 nM.

Q: How did the IC50 [1, 4] turn out when `CCCCCCCCCCCCCCCC(=O)NCCCC[C@H](NC(=O)[C@@H](NC(=O)[C@H](CCCNC(=N)N)NC(=O)[C@H](CC(=O)O)NC(=O)[C@H](CCSC)NC(=O)[C@H](C)NC(=O)[C@@H](NC(=O)[C@H](CO)NC(=O)[C@H](Cc1ccc(O)cc1)NC(=O)[C@H](CC(=O)O)NC(=O)[C@H](CO)NC(=O)[C@@H](NC(=O)[C@H](Cc1ccccc1)NC(=O)[C@@H](N)[C@@H](C)O)[C@@H](C)CC)[C@@H](C)CC)[C@@H](C)CC)C(=O)N[C@@H](CCC(N)=O)C(=O)N[C@@H](CCC(N)=O)C(=O)N[C@@H](CC(=O)O)C(=O)N[C@@H](Cc1ccccc1)C(=O)N[C@H](C(=O)N[C@@H](CC(N)=O)C(=O)N[C@@H](Cc1c[nH]c2ccccc12)C(=O)N[C@@H](CC(C)C)C(=O)N[C@@H](CC(C)C)C(=O)N[C@@H](C)C(=O)N[C@@H](CCC(N)=O)C(=O)N[C@@H](CCCNC(=N)N)C(N)=O)C(C)C` [AT134, [hGIP(5-30)NH2[K16R; H18K; K30R]-16/18]] (H-TFISDYSIAMDRIK(Palmitoyl)QQDFVNWLLAQR-NH2; N-terminus assumed) was run?
A: Its IC50 is 93 nM.

Q: And the Emax [2]?
A: The Emax was 11%.

Q: And the EC50 ([2]; read-out: cAMP agonism nM (EC50))?
A: The EC50 was 35 nM.

Q: And the “Fold change HSA (2%)/Casein (0.1%)” value [3]?
A: Its value is 5.5.

Q: And the IC50 [3, 5]?
A: Its IC50 is 794 nM.

Q: What about the IC50 [3, 6] of the same compound?
A: Its IC50 is 882 nM.

Q: How did the “Ability” value [1] turn out when `CCCCCCCCCCCCCCCC(=O)N[C@H](C(=O)N[C@@H](Cc1ccccc1)C(=O)N[C@H](C(=O)N[C@@H](CO)C(=O)N[C@@H](CC(=O)O)C(=O)N[C@@H](Cc1ccc(O)cc1)C(=O)N[C@@H](CO)C(=O)N[C@H](C(=O)N[C@@H](C)C(=O)N[C@@H](CCSC)C(=O)N[C@@H](CC(=O)O)C(=O)N[C@@H](CCCNC(=N)N)C(=O)N[C@H](C(=O)N[C@@H](Cc1c[nH]cn1)C(=O)N[C@@H](CCC(N)=O)C(=O)N[C@@H](CCC(N)=O)C(=O)N[C@@H](CC(=O)O)C(=O)N[C@@H](Cc1ccccc1)C(=O)N[C@H](C(=O)N[C@@H](CC(N)=O)C(=O)N[C@@H](Cc1c[nH]c2ccccc12)C(=O)N[C@@H](CC(C)C)C(=O)N[C@@H](CC(C)C)C(=O)N[C@@H](C)C(=O)N[C@@H](CCC(N)=O)C(=O)N[C@@H](CCCNC(=N)N)C(N)=O)C(C)C)[C@@H](C)CC)[C@@H](C)CC)[C@@H](C)CC)[C@@H](C)O` [AT135, [hGIP(5-30)NH2[K16R; K30R]-C16/5]] (Palmitoyl-TFISDYSIAMDRIHQQDFVNWLLAQR-NH2) was run?
A: The value was “failed to antagonize”.

Q: What about the Emax [2] of the same compound?
A: The Emax was 0%.

Q: What about the “Fold change HSA (2%)/Casein (0.1%)” value [3] of the same compound?
A: The value was 0.2.

Q: And the IC50 [3, 5]?
A: The IC50 was 6310 nM.

Q: And the IC50 [3, 6]?
A: The IC50 was 5940 nM.

— US11572399B2, “Long-acting GIP peptide analogues” (University of Copenhagen, priority 2017, dated 2023)
